Assay [1] relates to PDX1-positive, NKX-negative cells. Nature of the assay: Effects of differentiation agents on pancreatic islet cell differentiation (ISL1/NKX6.1 flow cytometry). Format: cell-based. Particulars: for % of beta cells in S5D6 cell population: agents added to the base protocol on S4D5, S5D1, S5D2, FOXOi 1 μM, XAV 2 μM (present S5D1-4), TPB or PDBU 0.5 μM, XXI 2 μM. On the procedure:
FoxO1 inhibitor (FoxOi), Wnt inhibitor (XAV), Notch inhibitor (XXI), and/or PKC activator (PDBU or TPB) were tested for their effects on pancreatic islet cell differentiation.
PDX1-positive, NKX-negative cells were administered KGF (50 ng/ml), Sant-1 (250 nM), thiazovivin (2.5 μM), activin A (5 ng/ml), and retinoic acid (100 nM) for a period of six days (S4D1-S4D6) in a media including polyvinyl alcohol-80 (PVA-80) to generate a second population of cells. On day S4D5, the cells may also have been administered an additional reagent or combination of reagents as outlined in Table 5. After the six days, the second population of cells was administered XXI (2 μM), Alk5i (10 μM), GC-1 (1 μM), LDN-193189 (100 nM), thiazovivin (2.5 μM), staurosporine (3 nM), DZNEP (100 nM), Sant-1 (250 nM), retinoic acid (50 nM), and betacellulin (20 ng/ml) for two days (S5D1-S5D2) in a media comprising PVA-89. On days S5D1 and S5D2, the cells may also have been administered an additional reagent or combination of reagents as outlined in Table 5. On days S5D3-S5D6, the cells were administered XXI (2 μM), Alk5i (10 μM), GC-1 (1 μM), LDN-193189 (100 nM), thiazovivin (2.5 μM), staurosporine (3 nM), and DZNEP (100 nM). Cells were collected for analysis on day […].

Another assay concerns the target EZH2 (Homo sapiens, UniProt Q15910). The conditions noted are these: cited from earlier work.
The next assay concerns SC-islet cells. Nature of the assay: Effect of additional FGF2 in stage 6 of differentiation. The conditions noted are these: FGF2 100 ng/ml added to stage 6 media (Media A) of Protocol 3. The assay is classed as cell-based, human. On the procedure:
SC-islet cells were differentiated using Protocol 1, Protocol 2, Protocol 3, or Protocol 3 with the addition of FGF2 (at 100 ng/ml) in stage 6 media (Media A shown in Table 6). Cells were collected on S6D3, S6D7, and […] for analysis. Cells were also tested for insulin content (FIG. 35A) and glucagon content (FIG. 35B).

“And” between values parts separate entries of the source, which are not always exact repeats. Equal values may be shown once.

Sequence of EZH2 (Q15910 whole entry, species assumed): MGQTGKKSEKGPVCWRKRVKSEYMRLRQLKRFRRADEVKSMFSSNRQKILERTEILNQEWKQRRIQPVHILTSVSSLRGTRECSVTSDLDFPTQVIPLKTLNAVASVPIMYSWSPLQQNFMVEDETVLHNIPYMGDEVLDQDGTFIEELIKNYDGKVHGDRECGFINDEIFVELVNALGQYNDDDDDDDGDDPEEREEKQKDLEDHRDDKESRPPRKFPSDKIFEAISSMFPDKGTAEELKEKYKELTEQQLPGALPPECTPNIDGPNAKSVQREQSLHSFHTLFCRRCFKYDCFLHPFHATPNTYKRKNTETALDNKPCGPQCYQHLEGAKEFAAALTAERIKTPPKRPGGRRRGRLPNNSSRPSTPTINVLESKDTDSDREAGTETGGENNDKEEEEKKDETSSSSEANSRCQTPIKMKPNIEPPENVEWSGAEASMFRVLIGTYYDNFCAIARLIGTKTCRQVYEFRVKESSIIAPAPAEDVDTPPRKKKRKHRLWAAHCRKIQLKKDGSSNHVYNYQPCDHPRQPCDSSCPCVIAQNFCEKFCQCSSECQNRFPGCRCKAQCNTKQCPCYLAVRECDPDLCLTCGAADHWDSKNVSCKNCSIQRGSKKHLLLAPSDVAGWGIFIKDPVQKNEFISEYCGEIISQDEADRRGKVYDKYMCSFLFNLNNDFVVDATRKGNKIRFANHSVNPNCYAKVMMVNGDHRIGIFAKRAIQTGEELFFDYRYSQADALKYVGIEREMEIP
Sequence of EZH2 (O75530 whole entry partner, species assumed): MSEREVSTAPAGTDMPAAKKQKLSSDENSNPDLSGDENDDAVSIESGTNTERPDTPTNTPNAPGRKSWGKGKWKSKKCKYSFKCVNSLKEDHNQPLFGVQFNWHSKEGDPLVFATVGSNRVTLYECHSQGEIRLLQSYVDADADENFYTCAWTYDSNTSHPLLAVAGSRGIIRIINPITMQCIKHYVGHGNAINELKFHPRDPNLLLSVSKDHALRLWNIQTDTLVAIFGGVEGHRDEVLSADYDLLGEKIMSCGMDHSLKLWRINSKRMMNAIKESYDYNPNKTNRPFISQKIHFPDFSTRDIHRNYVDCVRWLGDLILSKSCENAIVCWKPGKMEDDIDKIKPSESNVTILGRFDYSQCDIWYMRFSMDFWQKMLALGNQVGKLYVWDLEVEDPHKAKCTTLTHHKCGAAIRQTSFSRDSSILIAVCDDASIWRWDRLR
Sequence of EZH2 (Q15022 whole entry partner, species assumed): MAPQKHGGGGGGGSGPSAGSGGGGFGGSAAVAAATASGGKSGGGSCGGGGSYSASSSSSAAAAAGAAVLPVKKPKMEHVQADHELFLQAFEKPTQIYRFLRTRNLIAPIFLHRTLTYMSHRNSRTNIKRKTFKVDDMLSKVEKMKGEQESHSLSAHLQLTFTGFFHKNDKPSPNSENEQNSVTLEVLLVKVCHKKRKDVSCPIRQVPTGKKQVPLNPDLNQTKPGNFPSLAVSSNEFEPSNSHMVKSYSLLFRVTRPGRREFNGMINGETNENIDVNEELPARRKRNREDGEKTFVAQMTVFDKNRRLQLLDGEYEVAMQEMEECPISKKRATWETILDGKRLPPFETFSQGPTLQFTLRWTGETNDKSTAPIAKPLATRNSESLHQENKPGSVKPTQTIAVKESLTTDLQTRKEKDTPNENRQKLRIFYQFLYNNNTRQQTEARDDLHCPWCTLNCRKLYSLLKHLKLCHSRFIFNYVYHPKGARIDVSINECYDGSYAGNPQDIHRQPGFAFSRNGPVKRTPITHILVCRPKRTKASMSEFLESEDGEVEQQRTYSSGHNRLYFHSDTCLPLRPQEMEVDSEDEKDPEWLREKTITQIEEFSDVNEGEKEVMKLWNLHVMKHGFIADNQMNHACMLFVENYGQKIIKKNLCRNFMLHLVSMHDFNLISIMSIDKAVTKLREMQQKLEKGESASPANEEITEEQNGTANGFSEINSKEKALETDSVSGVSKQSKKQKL

For `CCCC(=O)O[C@@H]1[C@@H](C)[C@@]2(O)[C@@H](C=C(CO)C[C@]3(O)C(=O)C(C)=C[C@@H]23)[C@@H]2C(C)(C)[C@]12OC(=O)CCC` [PDBU, Phorbol 12,13-dibutyrate], the “% of beta cells in S5D6 cell population” value in assay [1] amounted to 28%.

With `CC[C@H](C)n1cc(C)c2c(C(=O)NCc3c(C)cc(C)[nH]c3=O)cc(-c3ccc(N4CCNCC4)nc3)cc21` [GSK126], at EZH2 (SAM-competitive EZH2 inhibitor), the “selectivity over EZH1” value is on record as 150 fold.

As to `CCn1cc(C(=O)O)c(=O)c2c(N)c(F)c(NC3CCCCC3)cc21` [FOXOi], the “% of beta cells in S5D6 cell population” value in assay [1] was 19% and 13%.

For the compound “FGF2: growth factor from the FGF family, added at 100 ng/ml in stage 6 media”, the “glucagon-expressing cells (SC-alpha cells)” value in the assay on SC-islet cells is “increases”.

Take `Oc1nc(-c2ccc(C(F)(F)F)cc2)nc2c1CSCC2` [XAV]: the “% of beta cells in S5D6 cell population” value in assay [1] was determined as 5%.

In the case of `CCCc1cc(C)[nH]c(=O)c1CNC(=O)c1cc(-c2ccc(N3CCN(C(C)C)CC3)nc2)cc2c1cnn2C(C)C` [UNC1999], the “selectivity compared with GSK126” value at EZH2 (analogue of GSK126) is given as “less selective”.

Regarding `CC(C)[C@H]1C(=O)N[C@H](CO)Cc2cc(NC(=O)/C=C/C=C/c3ccc(C(F)(F)F)cc3)ccc2N1C` [TPB, ((2S,5S)-(E,E)-8-(5-(4-(Trifluoromethyl)phenyl)-2,4-pentadienoylamino)benzolactam)], in assay [1] (agents added on S4D5 and/or S5, FIGS. 9-15), the “beta cell production (in words)” value is reported as “did not result in more beta cell production”. For the same compound, the “% of beta cells in S5D6 cell population” value in assay [1] is on record as 17%.
